Experimental data taken from US20060205669A1, “G-type peptides and other agents to ameliorate atherosclerosis and other pathologies” (The Regents of the University of California, priority 2004, published 2006).
“Also recorded” adds a separate entry of the source.

Assays:
[1] = tested on: ApoE null mice; experiment: Protection against LDL-induced monocyte chemotactic activity by HDL from apo E null mice given oral peptides; format: in vivo; conditions: peptide in drinking water (D-4F 5-50, D-J336 20-50 μg per ml), 24 hrs, murine HDL at 100 μg cholesterol/ml
Method: FIG. 4 illustrates the effect of oral apoA-1 peptide mimetic and apoJ peptide on HDL protective capacity. ApoE null mice (4 per group) were provided with D-4F (designated as F) at 50, 30, 20, 10, 5 μg per ml of drinking water or apoJ peptide (designated as J) at 50, 30 or 20 μg per ml of drinking water. After 24 hrs blood was collected, plasma fractionated by FPLC and fractions containing LDL (designated as mLDL for murine LDL) and fractions containing HDL (designated as mHDL) were separately pooled and HDL protective capacity against LDL oxidation as determined by LDL-induced monocyte chemotactic activity was determined. For the assay controls the culture wells received no lipoproteins (no additions), mLDL alone (at 200 μg cholesterol/ml), or mLDL+standard normal human HDL (designated as Cont. h HDL, at 350 μg HDL cholesterol/ml).
For testing the murine HDL, mLDL together with murine HDL (+F mHDL or +J mHDL) were added to artery wall cell cultures. […] The murine HDL was used at 100 μg cholesterol/ml.

[2] = tested on: ApoE null mice; experiment: HDL and pre-beta HDL from apoE null mice fed solution-phase (fragment) synthesized D-4F: inhibition of LDL-induced monocyte chemotaxis; format: in vivo; conditions: apoE null mice fed 5 micrograms solution-phase/fragment-synthesized D-4F, bled at 12 hours; FIG. 15
Source text: ApoE null mice were fed 5 micrograms of the D-4F synthesized as described above (Frgmnt) or the mice were given the same amount of mouse chow without D-4F (Chow). Twelve hours after the feeding was started, the mice were bled and their plasma was fractionated on FPLC.

[3] = tested on: LDL receptor null mice; experiment: HDL protective capacity in LDL receptor null mice given peptide in drinking water; format: in vivo; conditions: 0.25 or 0.5 mg per ml drinking water, 24 or 48 hrs, mouse HDL at 100 μg cholesterol/ml
Method: D-4F designated as F, or the apoJ peptide made from D amino acids (D-J336, designated as J) was added to the drinking water of LDL receptor null mice (4 per group) at 0.25 or 0.5 mg per ml of drinking water. After 24- or 48-hrs blood was collected from the mice and their HDL was isolated and tested for its ability to protect against LDL-induced monocyte chemotactic activity. Assay controls included culture wells that received no lipoproteins (no addition), or control human LDL alone (designated as LDL, 200 μg cholesterol/ml), or control LDL+control human HDL (designated as +HDL, 350 μg HDL cholesterol). For testing the mouse HDL, the control LDL was added together with mouse HDL (+F HDL or +J HDL) to artery wall cell cultures. The mouse HDL was added at 100 μg cholesterol/ml respectively.

[4] = tested on: Obese Zucker Rats; experiment: Balloon injury of the common carotid artery, intimal media ratio; format: in vivo; conditions: 5 mg/kg/daily injected for 1 week before injury, sacrificed two weeks later, FIG. 13
Method: FIG. 13 illustrates the effect of D4F on balloon injury of the carotid artery. Sixteen week old Obese Zucker Rats were injected with D-4F (5 mg/kg/daily) for 1 week at which time they underwent balloon injury of the common carotid artery. Two weeks later the rats were sacrificed and the intimal media ratio determined.
Sixteen week old Obese Zucker Rats were injected with D-4F (5 mg/kg/daily) for 1 week at which time they underwent balloon injury of the common carotid artery. Two weeks later the rats were sacrificed and the intimal media ratio determined.

[5] = tested on: Obese Zucker Rats; experiment: Plasma glucose and lipid hydroperoxides (LOOH) in Obese Zucker Rats; format: in vivo; conditions: Obese Zucker Rats 26 weeks, 5.0 mg/kg/day intraperitoneal, 10 days; FIG. 12
Method: Obese Zucker Rats 26 weeks of age were bled and then treated with daily intraperitoneal injections of D-4F (5.0 mg/kg/day). After 10 days the rats were bled again plasma glucose and lipid hydroperoxides (LOOH) were determined. *p=0.027; ** p=0.0017.

[6] = tested on: ApoE null mice; experiment: Trabecular bone mineral density in apoE null mice; format: in vivo; conditions: drinking water, 6 weeks
[7] = tested on: mice fed an atherogenic diet; conditions: 20 μg daily injected; cited from earlier work
[8] = tested on: Human aortic endothelial cells; experiment: Prevention of LDL-induced monocyte chemotactic activity in vitro, co-incubation; format: cell-based; conditions: co-incubation with control human LDL 200 μg protein/ml, overnight; FIG. 1
Method: FIG. 1 illustrates a comparison of the effect of D-4F (Circulation 2002; 105:290-292) with the effect of an apoJ peptide made from D amino acids (D-J336, Ac-LLEQLNEQFNWVSRLANLTQGE-NH2, SEQ ID NO:13) on the prevention of LDL-induced monocyte chemotactic activity in vitro in a co-incubation. Human aortic endothelial cells were incubated with medium alone (no addition), with control human LDL (200 μg protein/ml) or control human LDL+control human HDL (350 μg HDL protein/ml). D-J336 or D-4F was added to other wells in a concentration range as indicated plus control human LDL (200 μg protein/ml). Following overnight incubation, the supernatants were assayed for monocyte chemotactic activity.

[9] = tested on: Human aortic endothelial cells; experiment: Prevention of LDL-induced monocyte chemotactic activity by pre-treatment (pre-incubation) of artery wall cells; format: cell-based; conditions: 6 hrs pre-incubation, D-J336 4, 2, 1 μg/ml vs D-4F 100-12.5 μg/ml, FIG. 2
Method: FIG. 2 illustrates a comparison of the effect of D-4F with the effect of D-J336 on the prevention of LDL induced monocyte chemotactic activity in a pre-incubation. Human aortic endothelial cells were pre-incubated with D-J336 or D-4F at 4, 2, and 1 μg/ml for DJ336 or 100, 50, 25, and 12.5 μg/ml for D-4F for 6 hrs. The cultures were then washed and were incubated with medium alone (no addition), or with control human LDL (200 μg protein/ml), or with control human LDL+control human HDL (350 μg HDL protein/ml) as assay controls. The wells that were pre-treated with peptides received the control human LDL at 200 μg protein/ml. Following overnight incubation, the supernatants were assayed for monocyte chemotactic activity.

[10] = tested on: ApoE null mice; experiment: Plasma paraoxonase (PON1) activity in apoE null mice given oral peptides; format: in vivo; conditions: apoE null mice, 50, 10 or 5 μg per ml drinking water, 24 hrs, FIG. 7
Method: ApoE null mice (4 per group) were provided with D-4F designated as F at 50, 10, 5 or 0 μg per ml of drinking water or apoJ peptide (D-J336 made from D amino acids and designated as J) at 50, 10 or 5 μg per ml of drinking water. After 24 hrs blood was collected and plasma was assayed for PON1 activity.

[11] = tested on: ApoE null mice; experiment: Protection against PAPC oxidation by HPODE by HDL from apo E null mice given oral peptides; format: in vivo; conditions: peptide in drinking water, 24 hrs, murine HDL at 100 μg cholesterol/ml
Method: FIG. 6 illustrates the effect of oral apoA-1 peptide mimetic and apoJ peptide on HDL protective capacity. ApoE null mice (4 per group) were provided with D-4F (designated as F) at 50, 30, 20, 10, 5 μg per ml of drinking water or apoJ peptide (D-J336 made from D amino acids and designated as J) at 50, 30 or 20 μg per ml of drinking water. After 24 hrs blood was collected, plasma fractionated by FPLC and fractions containing HDL (designated as mHDL) were pooled and HDL protective capacity against PAPC oxidation as determined by the induction of monocyte chemotactic activity was determined. For the assay controls the culture wells received no lipoproteins (no additions), the phospholipid PAPC at 20 μg/ml+HPODE, at 1.0 μg/ml, or PAPC+BPODE plus standard normal human HDL (at 350 μg HDL cholesterol/ml and designated as +Cont. h HDL).
For testing the murine HDL, PAPC+HPODE together with murine HDL (+F mHDL or +J mHDL) were added to artery wall cell cultures. […] The murine HDL was used at 100 μg cholesterol/ml.

[12] = tested on: ApoE null mice; experiment: Ability of LDL from apoE null mice given oral peptides to induce monocyte chemotactic activity (LDL susceptibility to oxidation); format: in vivo; conditions: peptide in drinking water, 24 hrs
Method: FIG. 5 illustrates the effect of oral apo A-1 peptide mimetic and apoJ peptide on LDL susceptibility to oxidation. ApoE null mice (4 per group) were provided, in their drinking water, with D-4F (designated as F) at 50, 30, 20, 10, 5 μg per ml of drinking water or the apoJ peptide (D-J336 made from D amino acids and designated as J) at 50, 30 or 20 μg per ml of drinking water. After 24 hrs blood was collected from the mice shown in FIG. 4, plasma fractionated by FPLC and fractions containing LDL (designated as mLDL for murine LDL) were pooled and LDL susceptibility to oxidation as determined by induction of monocyte chemotactic activity was determined. For the assay controls the culture wells received no lipoproteins (no additions), mLDL alone (at 200 μg cholesterol/ml), or mLDL+standard normal human HDL (designated as Cont. h HDL, 350 μg HDL cholesterol).
Murine LDL, mLDL, from mice that received the D-4F (F mLDL) or those that received the apoJ peptide (J mLDL) were added to artery wall cell cultures.

[13] = tested on: human volunteers; conditions: infusion into humans; cited from earlier work
[14] = tested on: mice; conditions: injection into mice; cited from earlier work
[15] = tested on: human LDL; conditions: human LDL treated in vitro; cited from earlier work

Ac-D-W-F-K-A-F-Y-D-K-V-A-E-K-F-K-E-A-F-NH2 (Ac-DWFKAFYDKVAEKFKEAF-NH2; also: D-amino acids, places not given here) [Peptide D-4F, apoA-I mimetic class A amphipathic helical peptide]
HDL protective capacity against LDL oxidation (LDL-induced monocyte chemotactic activity) ([1]; FIG. 4): as active as 350 μg/ml of normal human HDL | biological activity: producing HDL and pre-beta HDL that inhibit LDL-induced monocyte chemotaxis [2]: biologically active in mice; also recorded: very biologically active | HDL protective capacity against LDL-induced monocyte chemotactic activity ([3]; FIG. 3): as active as 350 μg/ml of control human HDL | restenosis (intimal media ratio) after balloon injury of the common carotid artery [4]: reduced | symptoms of diabetes (plasma glucose) [5]: effective in mitigating symptoms of diabetes | trabecular bone mineral density [6]: dramatically increased

Ac-D-W-L-K-A-F-Y-D-K-V-F-E-K-F-K-E-F-F-NH2 (Ac-DWLKAFYDKVFEKFKEFF-NH2) [Peptide 5F]
LDL from PBS-injected mice compared with LDL from peptide-injected mice: oxidation and induction of monocyte chemotactic activity [7]: more readily oxidized and more readily induced monocyte chemotactic activity

Ac-LLEQLNEQFNWVSRLANLTQGE-NH2 [D-J336]
in vitro concentration that prevents LDL-induced monocyte chemotactic activity by human artery wall cells, times less than the concentration required for D-4F [8]: 10 to 25 times | potency in preventing LDL oxidation by artery wall cells in vitro, times more potent than D-4F [9]: 10 to 25 times | potency in preventing LDL oxidation by artery wall cells in vitro, times more potent than D-4F ([9]; listed as ApoJ variant peptide): 10-25 times | increasing plasma paraoxonase activity [10]: at least as potent as D-4F | increasing plasma paraoxonase activity ([10]; listed as DJ336): at least as potent as D4F | HDL protective capacity against LDL oxidation (LDL-induced monocyte chemotactic activity) ([1]; FIG. 4): as active as 350 μg/ml of normal human HDL | HDL protective capacity against LDL oxidation (LDL-induced monocyte chemotactic activity) ([1]; FIG. 4, listed as D-J peptide): as potent as D-4F | HDL protective capacity against LDL oxidation (LDL-induced monocyte chemotactic activity) ([1]; FIG. 4, listed as DJ336): as potent as D4F | HDL protective capacity against LDL-induced monocyte chemotactic activity ([3]; FIG. 3): as active as 350 μg/ml of control human HDL | HDL protective capacity against LDL-induced monocyte chemotactic activity ([3]; FIG. 3, listed as DJ335): essentially as effective as D4F | causing HDL to inhibit oxidation of PAPC by HPODE (generation of monocyte chemotactic activity) ([11]; FIG. 6): as potent as D-4F | causing HDL to inhibit oxidation of PAPC by HPODE (generation of monocyte chemotactic activity) ([11]; FIG. 6, listed as DJ336): as potent as D4F | rendering LDL resistant to oxidation by human artery wall cells (induction of monocyte chemotactic activity) ([12]; FIG. 5): slightly more potent than D-4F | rendering LDL resistant to oxidation by human artery wall cells (induction of monocyte chemotactic activity) ([12]; FIG. 5, listed as DJ336): slightly more potent than D4F

apo A-I: the major protein of HDL, apolipoprotein A-I
LDL isolated after infusion: oxidation by human artery wall cells and induction of monocyte chemotactic activity [13]: resistant to oxidation by human artery wall cells and did not induce monocyte chemotactic activity | LDL isolated after injection: oxidation by human artery wall cells and induction of monocyte chemotactic activity [14]: resistant to oxidation by human artery wall cells and did not induce monocyte chemotactic activity | removal of seeding molecules (including HPODE and HPETE) from LDL [15]: removed seeding molecules from the LDL
